# Reference: patent publication US20140249041A1, “Marker of Prostate Cancer” (Region Midtjylland, priority 2009, published 2014)
# Key:
# [1] = test system: SLC18A2 expression; test: SLC18A2 expression by real-time PCR in cell lines after epigenetic drug treatment; type: cell-based
# Method: RNA Preparation, cDNA Synthesis and Quantitative RT-PCR Total RNA from cultured cells and prostate tissue samples was isolated with the RNeasy MinElute Cleanup Kit (Qiagen), as described elsewhere (20). First-strand cDNA synthesis was performed with SuperScript II Reverse Transcriptase (Invitrogen) using oligo(dT) priming. SLC18A2 expression was measured with TaqMan Gene Expression Assay Hs00161858_ml and TaqMan Universal PCR Master Mix on a real-time ABI PRISM 7500 Sequence Detection System (all from Applied Biosystems). For normalization, UBC expression was measured using primers 5′-GATTTGGGTCGCGGTTCTT-3′ (SEQ ID NO: 6) plus 5′-[…]-3′ (SEQ ID NO: 7) and SYBR GREEN PCR Master Mix (Applied Biosystems). All reactions were run in triplicates.
# All cell lines were grown in RPMI 1640 with L-glutamin (Gibco, Invitrogen) supplemented with 10% fetal bovine serum, 100 U/ml penicillin and 100 μg/ml streptomycin. LNCaP, PC-3, DU145, and 22rv1 cells were obtained from ATCC, BPH-1 cells from DSMZ (Braunschweig, Germany), and PNT1A cells from ECACC. PSK-1 cells were kindly provided by Dr. Adrie van Boekhoven (University of Colorado), VCaP and DuCaP cells by Dr. Kenneth Pienta (University of Michigan), and H69 and H69A cells by Dr. Marie Stampe Ostenfeld (Danish Cancer Society, Copenhagen, Denmark). Cell lines were treated with 1 μM 5-aza-2′-deoxycytidine (Sigma) for 48 h and allowed 5 days recovery in complete medium. Four cell lines were given a combination of 1 μM 5-aza-2′-deoxycytidine (48 h treatment plus 5 days recovery) and 1 mM 4-phenylbutyric acid (Sigma) (continuously for 7 days). Mock treated cells were given buffer only. Growth media were changed daily and cells harvested on day 7. All experiments were performed in duplicate and repeated 2-3 times.
# [2] = test system: SLC18A2 promoter CpG island; test: Bisulfite sequencing of SLC18A2 CpG island in cell lines before and after epigenetic drug treatment; type: cell-based; conditions: PSK-1 cells; 1 μM 5-aza-2′-deoxycytidine; from 69% before treatment
# Method: For bisulfite sequencing, genomic DNA from prostate cell lines and carefully selected 20-μm sections of fresh-frozen Tissue-tek-embedded BPH, adenocarcinoma and adjacent non-malignant prostate tissue samples was isolated using the PUREGENE DNA Purification Kit (Gentra Systems) with proteinase K treatment (100 units, 30 min, 37 C), as previously described (29). Laser-microdissection was performed as described in (31). DNA was bisulfite converted using the MethylEasy DNA Bisulfite Modification Kit (Human Molecular Signaling, Sydney, Australia). The SLC18A2 promoter CpG island was PCR amplified with TEMPase Hot Start DNA Polymerase (Ampliqon) using primers 5′-[…]-3′ (SEQ ID NO: 8) and 5′-[…]-3′ (SEQ ID NO: 9). Gel purified (illustra GFX PCR DNA and Gel Band Purification Kit; GE Healthcare) amplicons were subcloned into the pCR4-TOPO vector (Invitrogen) and several clones sequenced using M13 forward and reverse primers. Clinicopathological data from patients undergoing methylation analysis is compiled in FIG. 4.
# All cell lines were grown in RPMI 1640 with L-glutamin (Gibco, Invitrogen) supplemented with 10% fetal bovine serum, 100 U/ml penicillin and 100 μg/ml streptomycin. LNCaP, PC-3, DU145, and 22rv1 cells were obtained from ATCC, BPH-1 cells from DSMZ (Braunschweig, Germany), and PNT1A cells from ECACC. […]
smiles,measurement,setting,value
Nc1ncn([C@H]2C[C@H](O)[C@@H](CO)O2)c(=O)n1 [5-aza-2′-deoxycytidine],induction of SLC18A2 expression,"[1]; H69A cells (derived adherent line), 1 μM 5-aza-2′-deoxycytidine",not observed
same,induction of SLC18A2 expression,"[1]; H69 cells, 1 μM 5-aza-2′-deoxycytidine 48 h plus 5 days recovery",induced SLC18A2 expression
same,induction of SLC18A2 expression,"[1]; PSK-1 cells, 1 μM 5-aza-2′-deoxycytidine 48 h plus 5 days recovery",induced SLC18A2 expression
same,CpG island methylation after treatment,[2],11%
